Reference: BindingDB's records for doi:10.1021/jm00038a002 (George Washington University Medical Center, 1994)

Tests used:
[1] = target: Sigma non-opioid intracellular receptor 1 (Cavia porcellus) (UniProt Q60492); assay: Binding affinity against sigma-1 receptor in guinea pig brain using [3H](+)-pentazocine as radioligand.
[2] = target: Sigma non-opioid intracellular receptor 1 (Cavia porcellus) (UniProt Q60492); assay: Binding affinity against sigma-1 receptor in guinea pig brain using [3H](+)-pentazocine as radioligand

Chain of Sigma non-opioid intracellular receptor 1 (Cavia porcellus) (Q60492 whole entry, looked up): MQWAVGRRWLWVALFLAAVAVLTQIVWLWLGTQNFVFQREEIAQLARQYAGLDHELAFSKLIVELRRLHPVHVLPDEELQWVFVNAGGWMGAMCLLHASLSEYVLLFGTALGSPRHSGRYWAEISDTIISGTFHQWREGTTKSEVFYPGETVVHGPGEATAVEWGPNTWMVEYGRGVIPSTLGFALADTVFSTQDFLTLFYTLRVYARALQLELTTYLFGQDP

Structure (SMILES) | Ki [1] [nM] | Ki [2] [nM]
O=C(NC1CCN(Cc2ccccc2)CC1)c1ccccc1I [N-(1-Benzyl-piperidin-4-yl)-2-iodo-benzamide] | 1.64 | 
O=C(NC1CCN(Cc2ccccc2)CC1)c1cccc(I)c1 [N-(1-Benzyl-piperidin-4-yl)-3-iodo-benzamide] |  | 3.02
